target: human PDE4D catalytic domain (UniProt no. Q08499) (Homo sapiens (Human), UniProt Q08499); assay: PDE4 assay (TR-FRET, FAM-cAMP cleavage); format: biochemical; conditions: human PDE4D catalytic domain; molar concentration giving 50% inhibition of substrate cleavage; read-out: PDE4 IC50 range
How it was run: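 PDE4D catalytic domain ([…]) was incubated with unlabelled cAMP plus FAM-cAMP and titrated compound, stopped with binding buffer of metal-ion nanoparticles and Tb donor. AMP generation read by TR-FRET; IC50 as 50% inhibition of cleavage versus controls, reported as nM ranges.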

Sequence of human PDE4D catalytic domain (Q08499 380-740 limits assumed): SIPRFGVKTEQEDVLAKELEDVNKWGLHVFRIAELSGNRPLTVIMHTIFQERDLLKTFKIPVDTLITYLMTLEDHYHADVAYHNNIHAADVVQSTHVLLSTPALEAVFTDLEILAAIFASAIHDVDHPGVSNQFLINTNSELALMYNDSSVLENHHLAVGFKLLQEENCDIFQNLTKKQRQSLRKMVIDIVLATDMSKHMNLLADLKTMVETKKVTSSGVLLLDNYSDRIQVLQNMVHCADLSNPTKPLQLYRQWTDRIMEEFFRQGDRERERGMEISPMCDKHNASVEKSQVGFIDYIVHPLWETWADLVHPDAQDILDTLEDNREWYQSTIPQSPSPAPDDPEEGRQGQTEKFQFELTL

CCc1nn(C[C@@H](C)COC(=O)c2cc(OC)ccc2F)c2c1C(=O)NCC1(CCOCC1)C2 [Example 191, [(2R)-3-(3-ethyl-4-oxo-spiro[6,8-dihydro-5H-pyrazolo[4,3-c]azepine-7,4′-tetrahydropyran]-1-yl)-2-methyl-propyl] 2-fluoro-5-methoxy-benzoate] was tested. Which IC50 did it give?
The IC50 was < 100 nM.

For CCc1nn(CCCOC(=O)c2ccc(F)cc2C)c2c1C(=O)NCC1(CCOCC1)C2 [Example 38, 3-(3-ethyl-4-oxo-spiro[6,8-dihydro-5H-pyrazolo[4,3-c]azepine-7,4′-tetrahydropyran]-1-yl)propyl 4-fluoro-2-methyl-benzoate], which IC50 is on record?
Its IC50 is < 100 nM.

CCc1nn(CCCOC(=O)c2ccc(OC)cc2F)c2c1C(=O)NCC1(CCOCC1)C2 [Example 64, 3-(3-ethyl-4-oxo-spiro[6,8-dihydro-5H-pyrazolo[4,3-c]azepine-7,4′-tetrahydropyran]-1-yl)propyl 2-fluoro-4-methoxy-benzoate] was tested. Which IC50 did it give?
The IC50 was < 100 nM.

How did the IC50 turn out when CCc1nn(CCCOC(=O)c2cc(OC)ccc2C(F)(F)F)c2c1C(=O)NCC1(CCOCC1)C2 [Example 119, 3-(3-ethyl-4-oxo-spiro[6,8-dihydro-5H-pyrazolo[4,3-c]azepine-7,4′-tetrahydropyran]-1-yl)propyl 5-methoxy-2-(trifluoromethyl)benzoate] was run?
The IC50 was < 100 nM.

For CCc1nn(CCCOC(=O)c2ccc(Cl)cc2OC)c2c1C(=O)NCC1(CCOCC1)C2 [Example 92, 3-(3-ethyl-4-oxo-spiro[6,8-dihydro-5H-pyrazolo[4,3-c]azepine-7,4′-tetrahydropyran]-1-yl)propyl 4-chloro-2-methoxy-benzoate], which IC50 is on record?
The IC50 was < 100 nM.

Which IC50 does the source give for CCc1nn(CCCOC(=O)c2cc(F)cc(F)c2)c2c1C(=O)NCC1(CCOCC1)C2 [Example 43, 3-(3-ethyl-4-oxo-spiro[6,8-dihydro-5H-pyrazolo[4,3-c]azepine-7,4′-tetrahydropyran]-1-yl)propyl 3,5-difluorobenzoate] here?
The IC50 was < 100 nM.

For CCc1nn(CCCOC(=O)c2ccc(C(=O)N3CCN(C(C)=O)CC3)cc2)c2c1C(=O)NCC1(CCOCC1)C2 [Example 149, 3-(3-ethyl-4-oxo-spiro[6,8-dihydro-5H-pyrazolo[4,3-c]azepine-7,4′-tetrahydropyran]-1-yl)propyl 4-(4-acetylpiperazine-1-carbonyl)benzoate], which IC50 is on record?
Its IC50 is 100 to 500 nM.

CCc1nn(C[C@@H](C)COC(=O)c2ccc(S(=O)(=O)NC)cc2)c2c1C(=O)NCC1(CCOCC1)C2 [Example 3, [(2R)-3-(3-Ethyl-4-oxo-spiro[6,8-dihydro-5H-pyrazolo[4,3-c]azepine-7,4′-tetrahydro-pyran]-1-yl)-2-methyl-propyl] 4-(methylsulfamoyl)benzoate] was tested. Which IC50 did it give?
Its IC50 is < 100 nM.

How did the IC50 turn out when CCc1nn(CCCOC(=O)C2CCC(F)(F)CC2)c2c1C(=O)NCC1(CCOCC1)C2 [Example 49, 3-(3-ethyl-4-oxo-spiro[6,8-dihydro-5H-pyrazolo[4,3-c]azepine-7,4′-tetrahydropyran]-1-yl)propyl 4,4-difluorocyclohexane-carboxylate] was run?
Its IC50 is 100 to 500 nM.

With CCc1nn(C[C@@H](C)COC(=O)c2ccc(Cl)c(OC)c2)c2c1C(=O)NCC1(CCOCC1)C2 [Example 208, [(2R)-3-(3-ethyl-4-oxo-spiro[6,8-dihydro-5H-pyrazolo[4,3-c]azepine-7,4′-tetrahydropyran]-1-yl)-2-methyl-propyl] 4-chloro-3-methoxy-benzoate] as the compound, how does the IC50 read?
Its IC50 is < 100 nM.

CCc1nn(C[C@@H](C)COC(=O)c2cc(F)ccc2F)c2c1C(=O)NCC1(CCOCC1)C2 [Example 177, [(2R)-3-(3-ethyl-4-oxo-spiro[6,8-dihydro-5H-pyrazolo[4,3-c]azepine-7,4′-tetrahydropyran]-1-yl)-2-methyl-propyl] 2,5-difluorobenzoate] was tested. Which IC50 did it give?
Its IC50 is < 100 nM.

How did the IC50 turn out when CCc1nn(CCCOC(=O)c2ccc(C)cc2Cl)c2c1C(=O)NCC1(CCOCC1)C2 [Example 73, 3-(3-ethyl-4-oxo-spiro[6,8-dihydro-5H-pyrazolo[4,3-c]azepine-7,4′-tetrahydropyran]-1-yl)propyl 2-chloro-4-methyl-benzoate] was run?
Its IC50 is < 100 nM.

How did the IC50 turn out when CCc1nn(C[C@@H](C)COC(=O)c2cccc(S(C)(=O)=O)c2)c2c1C(=O)NCC1(CCOCC1)C2 [Example 213, [(2R)-3-(3-ethyl-4-oxo-spiro[6,8-dihydro-5H-pyrazolo[4,3-c]azepine-7,4′-tetrahydropyran]-1-yl)-2-methyl-propyl] 3-methylsulfonylbenzoate] was run?
The IC50 was < 100 nM.

For CCc1nn(CCCOC(=O)c2cccc(F)c2)c2c1C(=O)NCC1(CCOCC1)C2 [Example 18, 3-(3-ethyl-4-oxo-spiro[6,8-dihydro-5H-pyrazolo[4,3-c]azepine-7,4′-tetrahydropyran]-1-yl)propyl 3-fluorobenzoate], which IC50 is on record?
Its IC50 is < 100 nM.

How did the IC50 turn out when CCc1nn(CCCOC(=O)c2ccc(OC)c(Cl)c2)c2c1C(=O)NCC1(CCOCC1)C2 [Example 86, 3-(3-ethyl-4-oxo-spiro[6,8-dihydro-5H-pyrazolo[4,3-c]azepine-7,4′-tetrahydropyran]-1-yl)propyl 3-chloro-4-methoxy-benzoate] was run?
The IC50 was < 100 nM.

same assay, conditions: read-out: PDE4 IC50 range

CCc1nn(CCCCOC(=O)c2ccc(S(=O)(=O)N(C)C)cc2)c2c1C(=O)NCC1(CCOCC1)C2 [Example 375, 4-(3-ethyl-4-oxo-spiro[6,8-dihydro-5H-pyrazolo[4,3-c]azepine-7,4′-tetrahydropyran]-1-yl)butyl 4-(dimethylsulfamoyl)benzoate] was tested. Which IC50 did it give?
Its IC50 is 100 to 500 nM.

For CCc1nn(CC(C)(C)COC(=O)c2ccc(C(=O)N(C)C)cc2)c2c1C(=O)NCC1(CCOCC1)C2 [Example 331, [3-(3-ethyl-4-oxo-spiro[6,8-dihydro-5H-pyrazolo[4,3-c]azepine-7,4′-tetrahydropyran]-1-yl)-2,2-dimethyl-propyl] 4-(dimethylcarbamoyl)benzoate], which IC50 is on record?
The IC50 was < 100 nM.

For CCc1nn(CC(C)(C)COC(=O)c2ccc(S(=O)(=O)C3CCCC3)cc2)c2c1C(=O)NCC1(CCOCC1)C2 [Example 319, [3-(3-ethyl-4-oxo-spiro[6,8-dihydro-5H-pyrazolo[4,3-c]azepine-7,4′-tetrahydropyran]-1-yl)-2,2-dimethyl-propyl] 4-cyclopentylsulfonylbenzoate], which IC50 is on record?
The IC50 was < 100 nM.

With CCc1nn(C[C@@H](C)COC(=O)c2cccc(C(=O)N(C)C)c2)c2c1C(=O)NCC1(CCOCC1)C2 [Example 266, [(2R)-3-(3-ethyl-4-oxo-spiro[6,8-dihydro-5H-pyrazolo[4,3-c]azepine-7,4′-tetrahydropyran]-1-yl)-2-methyl-propyl] 3-(dimethylcarbamoyl)benzoate] as the compound, how does the IC50 read?
The IC50 was < 100 nM.

Which IC50 does the source give for CCc1nn(CC(C)(C)COC(=O)c2cc(F)cc(C(F)(F)F)c2)c2c1C(=O)NCC1(CCOCC1)C2 [Example 310, [3-(3-ethyl-4-oxo-spiro[6,8-dihydro-5H-pyrazolo[4,3-c]azepine-7,4′-tetrahydropyran]-1-yl)-2,2-dimethyl-propyl] 3-fluoro-5-(trifluoromethyl)benzoate] here?
The IC50 was < 100 nM.

With CCc1nn(CC(C)(C)COC(=O)c2ccc(S(=O)(=O)N3CCCC3)cc2)c2c1C(=O)NCC1(CCOCC1)C2 [Example 321, [3-(3-ethyl-4-oxo-spiro[6,8-dihydro-5H-pyrazolo[4,3-c]azepine-7,4′-tetrahydropyran]-1-yl)-2,2-dimethyl-propyl] 4-pyrrolidin-1-ylsulfonylbenzoate] as the compound, how does the IC50 read?
Its IC50 is < 100 nM.

For CCc1nn(CC(C)(C)COC(=O)C2CCCC2)c2c1C(=O)NCC1(CCOCC1)C2 [Example 281, [3-(3-ethyl-4-oxo-spiro[6,8-dihydro-5H-pyrazolo[4,3-c]azepine-7,4′-tetrahydropyran]-1-yl)-2,2-dimethyl-propyl] cyclopentanecarboxylate], which IC50 is on record?
Its IC50 is < 100 nM.

For CCc1nn(CC(C)(C)COC(=O)c2ccccc2Cl)c2c1C(=O)NCC1(CCOCC1)C2 [Example 292, [3-(3-ethyl-4-oxo-spiro[6,8-dihydro-5H-pyrazolo[4,3-c]azepine-7,4′-tetrahydropyran]-1-yl)-2,2-dimethyl-propyl] 2-chlorobenzoate], which IC50 is on record?
Its IC50 is < 100 nM.

Which IC50 does the source give for CCc1nn(CC(C)(C)COC(=O)c2ccc(F)c(F)c2)c2c1C(=O)NCC1(CCOCC1)C2 [Example 294, [3-(3-ethyl-4-oxo-spiro[6,8-dihydro-5H-pyrazolo[4,3-c]azepine-7,4′-tetrahydropyran]-1-yl)-2,2-dimethyl-propyl] 3,4-difluorobenzoate] here?
Its IC50 is < 100 nM.

For CCc1nn(CC(C)(C)COC(=O)c2cccc(C(=O)N(C)C)c2)c2c1C(=O)NCC1(CCOCC1)C2 [Example 342, [3-(3-ethyl-4-oxo-spiro[6,8-dihydro-5H-pyrazolo[4,3-c]azepine-7,4′-tetrahydropyran]-1-yl)-2,2-dimethyl-propyl] 3-(dimethylcarbamoyl)-benzoate], which IC50 is on record?
Its IC50 is < 100 nM.

How did the IC50 turn out when CCc1nn(CCCCOC(=O)c2cccc(S(C)(=O)=O)c2)c2c1C(=O)NCC1(CCOCC1)C2 [Example 369, 4-(3-ethyl-4-oxo-spiro[6,8-dihydro-5H-pyrazolo[4,3-c]azepine-7,4′-tetrahydropyran]-1-yl)butyl 3-methylsulfonylbenzoate] was run?
Its IC50 is 100 to 500 nM.

How did the IC50 turn out when CCc1nn(C[C@H](C)COC(=O)c2cccc(OC)c2)c2c1C(=O)NCC1(CCOCC1)C2 [Example 278, [(2S)-3-(3-ethyl-4-oxo-spiro[6,8-dihydro-5H-pyrazolo[4,3-c]azepine-7,4′-tetrahydropyran]-1-yl)-2-methyl-propyl] 3-methoxybenzoate] was run?
Its IC50 is < 100 nM.

How did the IC50 turn out when CCNC(=O)c1cccc(C(=O)OC[C@H](C)Cn2nc(CC)c3c2CC2(CCOCC2)CNC3=O)c1 [Example 265, [(2R)-3-(3-ethyl-4-oxo-spiro[6,8-dihydro-5H-pyrazolo[4,3-c]azepine-7,4′-tetrahydropyran]-1-yl)-2-methyl-propyl] 3-(ethylcarbamoyl)benzoate] was run?
The IC50 was < 100 nM.

For CCc1nn(CC(C)(C)COC(=O)c2ccc(C(=O)N3CCCCC3)cc2)c2c1C(=O)NCC1(CCOCC1)C2 [Example 334, [3-(3-ethyl-4-oxo-spiro[6,8-dihydro-5H-pyrazolo[4,3-c]azepine-7,4′-tetrahydropyran]-1-yl)-2,2 dimethyl-propyl] 4-(piperidine-1-carbonyl)benzoate], which IC50 is on record?
The IC50 was < 100 nM.
